Four compounds from patent publication US20160362744A1, “Biomarkers of Mineralocorticoid Receptor Activation” (INSERM (Institut National de la Sante et de la Recherche …, priority 2008, published 2016) can be followed below.

In test [1] the target is T1, rat MR (Rattus norvegicus, UniProt P22199).
T1 construct: expressed in transfected cells; host or cells: rat H9C2 cardiomyocyte cells (H9-C2/MR)
T1 sequence (P22199 1-981): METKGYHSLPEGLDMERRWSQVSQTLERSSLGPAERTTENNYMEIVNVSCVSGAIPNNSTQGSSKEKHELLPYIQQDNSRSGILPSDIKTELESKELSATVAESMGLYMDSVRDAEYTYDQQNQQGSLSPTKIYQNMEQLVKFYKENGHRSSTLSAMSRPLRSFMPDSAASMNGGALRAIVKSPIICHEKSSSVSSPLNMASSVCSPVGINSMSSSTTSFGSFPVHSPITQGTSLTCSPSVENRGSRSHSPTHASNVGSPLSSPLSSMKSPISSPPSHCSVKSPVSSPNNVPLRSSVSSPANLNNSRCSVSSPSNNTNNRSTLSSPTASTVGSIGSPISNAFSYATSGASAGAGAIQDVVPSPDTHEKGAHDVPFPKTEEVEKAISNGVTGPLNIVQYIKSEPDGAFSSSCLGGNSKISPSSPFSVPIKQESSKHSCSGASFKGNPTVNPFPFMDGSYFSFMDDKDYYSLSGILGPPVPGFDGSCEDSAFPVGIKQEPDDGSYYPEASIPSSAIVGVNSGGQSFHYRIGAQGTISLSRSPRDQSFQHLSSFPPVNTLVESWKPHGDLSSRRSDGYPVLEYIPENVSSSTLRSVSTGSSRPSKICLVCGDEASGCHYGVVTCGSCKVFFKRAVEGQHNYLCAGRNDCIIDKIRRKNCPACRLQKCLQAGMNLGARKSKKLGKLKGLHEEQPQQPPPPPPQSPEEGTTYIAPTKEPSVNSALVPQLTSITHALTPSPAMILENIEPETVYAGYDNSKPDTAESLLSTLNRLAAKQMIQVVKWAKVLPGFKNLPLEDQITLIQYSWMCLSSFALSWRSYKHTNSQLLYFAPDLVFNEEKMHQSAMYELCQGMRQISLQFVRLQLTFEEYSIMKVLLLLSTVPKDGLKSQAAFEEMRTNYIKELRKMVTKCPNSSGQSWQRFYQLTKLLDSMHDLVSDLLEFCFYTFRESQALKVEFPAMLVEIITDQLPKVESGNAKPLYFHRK
As to the kind of experiment: Expression of NGAL mRNA (Q-PCR) in rat cardiomyocyte H9C2 cells stably expressing rat MR. The format is cell-based. The conditions noted are these: for Lipocalin2/NGAL expression, time-course: 10^−8M aldosterone. On the procedure:
Expression of NGAL in a Cellular Model of Rat Cardiomyocyte (H9C2 Cells) Stably Overexpressing with Rat MR
Quantitative NGAL mRNA expression was analyzed by quantitative PCR (Q-PCR, Light Cycler, Biorad) using forward 5′-[…]-3′ (SEQ ID NO:3) and reverse 5′-[…]-3′ (SEQ ID NO:4) primers on 25 μl of RT-PCR (using the qPCR Core kit for Sybr Green I from Eurogentec) prepared using 2 μg DNA-free total RNA extracted from rat H9-C2/MR cells treated with various concentrations of aldosterone or 10^−8M corticosterone or 10^−6 M MR antagonist RU 28318 or GR antagonist RU 486, alone or in combination.

The target in test [2] is T1, rat MR. As to the kind of experiment: Expression of Serpina3 mRNA (Q-PCR) in rat cardiomyocyte H9C2 cells stably overexpressing rat MR. It is filed as cell-based. The conditions noted are these: for serpina3 induction, time course: Aldosterone 10 nM. How it is done:
Expression of Serpina3 in a Cellular Model of Rat Cardiomyocyte (H9C2 Cells) Stably Overexpressing with Rat MR
Quantitative Serpina3 mRNA expression was analyzed by quantitative PCR (Q-PCR, Light Cycler, Biorad) using forward 5′-[…]-3′ (SEQ ID NO:7) and reverse 5′-[…]-3′ (SEQ ID NO:8) primers on 25 μl of RT-PCR (using the qPCR Core kit for Sybr Green I from Eurogentec) prepared using 2 μg DNA-free total RNA extracted from rat H9-C2/MR cells treated with various concentrations of aldosterone or 10^−8M corticosterone or 10^−6 M MR antagonist RU 28318, alone or in combination.

Test [3] addresses T2, MR (Mus musculus, UniProt Q8VII8).
T2 construct: from tissue; host or cells: living mice (heart, plasma)
T2 sequence (Q8VII8 1-978): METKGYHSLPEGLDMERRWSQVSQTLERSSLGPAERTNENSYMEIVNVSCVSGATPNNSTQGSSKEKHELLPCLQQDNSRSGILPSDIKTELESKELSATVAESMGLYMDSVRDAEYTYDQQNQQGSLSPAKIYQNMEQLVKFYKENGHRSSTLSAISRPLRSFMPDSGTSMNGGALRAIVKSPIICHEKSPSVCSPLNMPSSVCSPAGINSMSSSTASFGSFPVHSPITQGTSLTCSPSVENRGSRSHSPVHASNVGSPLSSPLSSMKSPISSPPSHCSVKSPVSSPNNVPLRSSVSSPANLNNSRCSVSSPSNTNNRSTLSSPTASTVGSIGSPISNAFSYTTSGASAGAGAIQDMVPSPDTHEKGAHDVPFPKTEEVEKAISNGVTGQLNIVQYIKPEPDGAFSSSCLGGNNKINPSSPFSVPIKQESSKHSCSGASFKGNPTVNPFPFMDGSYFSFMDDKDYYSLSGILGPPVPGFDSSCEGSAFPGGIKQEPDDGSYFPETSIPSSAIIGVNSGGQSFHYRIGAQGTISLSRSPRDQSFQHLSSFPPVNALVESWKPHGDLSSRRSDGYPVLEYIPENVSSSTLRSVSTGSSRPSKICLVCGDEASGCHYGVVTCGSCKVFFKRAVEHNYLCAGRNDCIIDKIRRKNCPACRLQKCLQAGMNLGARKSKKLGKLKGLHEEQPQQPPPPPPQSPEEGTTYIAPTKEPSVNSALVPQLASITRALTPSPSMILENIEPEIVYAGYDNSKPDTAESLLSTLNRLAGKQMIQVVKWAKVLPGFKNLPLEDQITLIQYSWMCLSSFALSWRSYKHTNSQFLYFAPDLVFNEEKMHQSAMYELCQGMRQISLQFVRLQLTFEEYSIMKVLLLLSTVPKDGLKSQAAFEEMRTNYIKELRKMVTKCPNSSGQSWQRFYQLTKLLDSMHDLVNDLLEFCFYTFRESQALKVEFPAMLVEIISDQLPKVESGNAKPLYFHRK
As to the kind of experiment: NGAL expression in uninephrectomized mice with aldosterone infusion and 1% salt (aldo/salt model). The format is in vivo. Particulars: 3 weeks. How it is done:
Quantitative NGAL mRNA expression was analyzed by quantitative PCR (Q-PCR, Light Cycler, Biorad) using forward 5′-[…]-3′ (SEQ ID NO:1) and Reverse 5′-[…]-3′ (SEQ ID NO:2) primers on 25 μl of RT-PCR (using the qPCR Core kit for Sybr Green I from Eurogentec) prepared using 2 μg DNA-free total RNA extracted from the heart of one, two and three mo-old MR transgenic mice and compared to matched littermates, as well as two mo-old GR transgenic mice (and respective control littermates). Protein expression of NGAL was analyzed in cardiac protein extracts from two mo-old MR mice using a specific NGAL antibody (AF1857, R&D Systems). […]
Quantitative NGAL mRNA expression was also analyzed by Q-PCR in the heart of mice with uninephrectomy and treated with aldosterone infusion (60 μg/kg/j, 0.25 μl/h ALZET minipumps) and 1% salt in the drinking water for 3 weeks (as compared to uninephrectomized-only control mice), and in thoracic aorta from 9 months-old mice with conditional overexpression of the human MR in the endothelium only obtained after appropriate breeding of the MR transgenic mice described above with an endothelial-specific transactivator mice (provided by L. E. Benjamine, Harvard, USA) (Sun et al., 2005) that allowed conditional expression of hMR in the endothelium only. […]

Test [4] deals with T2, MR. Kind of test: Plasma NGAL (ELISA) in db/db mouse model of type II diabetes treated with MR antagonist. The format is in vivo, mice.

“Also recorded” adds a separate entry of the source.

`CCC[C@@H]1CC2=CC(=O)CC[C@]2(C)[C@H]2CC[C@@]3(C)[C@@H](CC[C@@]3(O)CCC(=O)[O-])[C@H]12.[K+]` [RU 28318]: the “Effect on aldosterone-induced increase of Lipocalin2/NGAL expression” value at rat MR [1] (antagonist (10^−6 M) added to 10^−8M aldosterone) is given as “prevented”. For the same compound, on rat MR [1] (antagonist (10^−6 M) with 10^−8M corticosterone), the “Effect on corticosterone-induced increase of Lipocalin2/NGAL expression” value is reported as “prevented”. Also, the “Effect on corticosterone induction of SERPINA3 mRNA” value on rat MR [2] (H9C2/MR+ cells, MR antagonist with 10 nM corticosterone) is “prevented”. For the same compound, the “Effect on aldosterone induction of SERPINA3 mRNA” value on rat MR [2] (H9C2/MR+ cells, in presence of MR antagonist with 1 nM aldosterone) was “suppressed”.

Consider `C[C@]12CCC(=O)C=C1CC[C@@H]1[C@@H]2[C@@H](O)C[C@]2(C=O)[C@@H](C(=O)CO)CC[C@@H]12` [aldosterone], for which the Lipocalin2/NGAL expression entry at rat MR [1] (10^−8M aldosterone for 24 h) was “increased”. For the same compound, the “Lipocalin2/NGAL expression, time-course” value on rat MR [1] (after 24 h) is listed as “induced”; at rat MR [1] (after 48 h), “remained sustained”. At rat MR [1] (increasing concentrations of aldosterone), the “Lipocalin2/NGAL expression, dose-response” value is listed as “stimulated by increasing concentrations”. For the same compound, the “expression of serpina3 (in words)” value on rat MR [2] (H9C2/MR cells, 1 nM aldosterone for 24 h) is reported as “increased”. Further, the “Serpina3 expression (in words)” value on rat MR [2] (H9C2/MR cells, 10 nM aldosterone, 24 h exposure) is recorded as “highly induced”. Also, the “serpina3 induction, time course” value is recorded as “induced” on rat MR [2] (H9C2/MR cells, after 10 hours) and 15 × at rat MR [2] (H9C2/MR cells, after 24 h). Also, the “Serpina3 induction, dose-response” value at rat MR [2] (H9C2/MR cells, aldosterone, starting with 1 nM) is recorded as “dose-dependent; also recorded: Concentration dependent induction”. For the same compound, the “SERPINA3 mRNA induction” value at rat MR [2] (H9C2/MR+ cells, aldosterone 1 nM for 24 hrs) is given as “about 8 fold”. Also, the “Lipocalin2/NGAL expression in the heart” value on MR [3] (60 μg/kg/j infusion, quantitative PCR) was “increased”. Further, the “plasma levels of lipocalin2/NGAL” value at MR [3] (ELISA) is given as “increased”.

Turning to `C[C@]12CCC(=O)C=C1C=C[C@@H]1[C@@H]2CC[C@@]2(C)[C@H]1CC[C@@]2(O)CCC(=O)O` [canrenoate], the “Effect on plasma levels of lipocalin2/NGAL in control mice” value on MR [4] (control mice, 17 weeks treatment) is reported as “no effect”. At MR [4] (db/db mice, 17 weeks in vivo treatment, 100 mg/Kg/day in drinking water), the “Effect on increase in plasma levels of lipocalin2/NGAL in db/db mice” value was “prevented”.

In the case of `C[C@]12C[C@H](O)[C@H]3[C@@H](CCC4=CC(=O)CC[C@@]43C)[C@@H]1CC[C@@H]2C(=O)CO` [corticosterone], the Lipocalin2/NGAL expression entry at rat MR [1] (10^−8M corticosterone) was “stimulated”. Besides, the “SERPINA3 mRNA expression” value at rat MR [2] (H9C2/MR cells, 10 nM corticosterone, 24 h) is reported as “increased”.
